Columns and labels:
SKRC-17 cells = test: Cell proliferation assay (SRB, cellular protein content); assay type: cell-based, human; conditions: proliferation assays
Experimental: (§1) Cellular protein content was determined as a measure of cell proliferation, using suforhodamine B (SRB) assays as described in (83). Sensitivity to EGCG was determined by adding a concentration range of EGCG (0-50 μM) or DMSO solvent one day after seeding 1,000 cells per well in 96-wells plates (Nunc, Roskilde, Denmark). An SRB assay was performed after 3 days, and IC50 values were determined in GraphPad Prism using the sigmoidal dose response with variable slope nonlinear regression analysis.
(§2) Furthermore cell proliferation over 8 days in presence or absence of EGCG was determined. Cells were seeded at 1,000 cells per well and at day 1 and day 5 after seeding the medium was changed for medium with or without 10 μM EGCG. Controls were incubated with DMSO. Protein content was determined every 2 days. Experiments were performed in triplicate and statistical significance was determined using one-way ANOVA with bonferroni correction.

SKRC-7 cells = test: as above; assay type: cell-based, human; conditions: proliferation assays
Experimental: as §1, §2

NC(=O)c1ccc(N)nc1 [Compound 6-AN, 6-aminonicotinamide]
cell proliferation response (SKRC-17 cells): significantly decreased cell proliferation
cell proliferation response (SKRC-7 cells): increase of cell proliferation

From patent US20200032347A1, “RNA profiling for individualized diet and treatment advice” (Stichting Katholieke Universiteit, priority 2017, published 2020)
